# Measured values: patent US20250002467A1, “DESIGN, SYNTHESIS AND MECHANISMS OF ANTICANCER ACTIVITY OF NEW ACETYLATED 5-AMINOSALICYLATE-THIAZOLINONE HYBRID DERIVATIVES” (University of Sharjah, priority 2023, published 2025)
# Experiments:
# Format in all cases: cell-based
# A549 cells = assay: Transcriptomic analysis of HH33-treated A549 cells
# Experimental: (§1) RNA extraction was carried out followed by cDNA synthesis using SuperScript VILO cDNA Synthesis kit (Invitrogen, Waltham, MA, USA) and amplification using Ion AmpliSeq gene expression core panel primers. The prepared library was purified using Agencourt AMPure XP beads (Beckman Coulter, California, USA) and quantified using Ion Library TaqMan™ Quantitation Kit (Applied Biosystems, Waltham, MA, USA). The libraries were further diluted to […] and pooled equally with four individual samples per pool. The pooled libraries were amplified using emulsion PCR on Ion OneTouch™ 2 instrument (OT2) and the enrichment was performed on Ion OneTouch™ ES following the manufacturer's instruction. Thus, prepared template libraries were then sequenced with Ion S5 XL Semiconductor sequencer using the Ion 540™ Chip. RNA-seq data were analyzed using Ion Torrent Software Suite version 5.4 and the alignment was carried out using modifications of the Torrent Mapping Alignment Program (TMAP) optimizing it for aligning the raw sequencing reads against reference sequence derived from hgl9 (GRCh37) assembly. The specificity and sensitivity was maintained by implementing a two-stage mapping approach by employing BWA-short, BWA-long, SSAHA [31], Super-maximal Exact Matching and Smith Waterman algorithm for optimal mapping. Raw read counts of the targeted genes were performed using Samtools (Samtools view —c -F 4-L bed_file bam_file) and the number of expressed transcripts was confirmed after Fragments Per Kilobase Million (FPKM) normalisation. Differentially expressed gene (DEG) analysis was performed using a script written in R programming language (version 3.6.3) with function calls to DESeq2 package from Bioconductor library sets. Raw read counts from RNASeq were normalized using quantile normalization. All counts ranked “0” were excluded. Differentially expressed genes between the two set of cell lines [HH33-treated (n=3), and untreated (n=3)] were assessed using 2 tailed t-test. Differentially expressed genes with p-value of <0.05, adjusted p-value<0.8 and 5-fold difference were included for pathway analysis using Metascape.
# MCF7 = assay: Cell cycle analysis by flow cytometry, MCF7; conditions: 1 μM, up to 72 hours, Control 11.3%
# Experimental: (§2) The effect of the HH32 and HH33 compounds on the distribution of cell cycle at different time points (2, 4, 8, 24, 48, and 72 hours) was analyzed using flow cytometry. Briefly, the cells were harvested and fixed in 70% ethanol for 24 hours at −20° C. The fixed cells were treated with RNAase […] (Sigma Aldrich, Missouri, USA) and stained with propidium iodide […] (Sigma Aldrich, Missouri, USA). The data were acquired using BD Accuri C6 flow cytometer (Becton Dickenson, San Jose, CA, USA) and analysis was done using Flow Jo software (Tree Star, Inc, Ashland, OR, USA).
# [1] = tested on: CDK4 knockout HCT116 cells; assay: Sensitivity and cell cycle of CDK4 knockout versus wild-type HCT116
# Experimental: CRISPR-Cas9 was employed to stablish HCT116 CDK4 KO cells. Ribonucleotide protein (RNP) delivery system for CRISPR technique was utilized. All the reagents were purchased for Thermoscientific company, USA. gRNA was used to target CDK4 genes. Lipofectamine™ CRISPRMAX™ Cas9 Transfection Reagent was used to transfect the cells with the gRNA and Cas9. The genomic cleavage efficiency was assessed by immunoblotting, while a scrambled gRNA, Trueguide gRNA Negative control, was used as a negative control in all the steps to ensure the specificity of the target. […] To generate isolated clones with complete knockout, the mixed pool of cells was diluted 1 cell/[…] liquid medium and then dispersed into 96 wells plate. The individual cells were left to form clones. […]
# The cytotoxic effects of HH32 and HH33 compounds were evaluated at various concentrations ranging from 0.0001 to 100 μM by sulphrhodamine-B (SRB) assay as described previously. The anti-proliferative activity was expressed as growth inhibitory concentration (IC50) values, which were calculated by the sigmoidal dose-response curve fitting method using Graph pad prism 6 software (GraphPad Software, San Diego, CA, USA).
# The effect of the HH32 and HH33 compounds on the distribution of cell cycle at different time points (2, 4, 8, 24, 48, and 72 hours) was analyzed using flow cytometry. […]
# A549 = assay: Cell cycle analysis by flow cytometry, A549; conditions: 1 μM, up to 72 hours, Control 8.5%
# Experimental: as §2
# HCT116 = assay: Cell cycle analysis by flow cytometry, HCT116; conditions: 1 μM, peak at 8 hours, Control 27.4%
# Experimental: as §2
# MCF7 cells = assay: Transcriptomic analysis of HH33-treated MCF7 cells
# Experimental: as §1
# [2] = A549, H33-treated vs DMSO-treated, DNA repair pathways
# [3] = H33-treated A549 cells/DMSO-treated A549 cells, Apoptosis
# [4] = H33-treated A549 cells/DMSO-treated A549 cells, Cell Cycle
# [5] = H33-treated A549 cells/DMSO-treated A549 cells, Transcriptional Regulation by TP53
# [6] = H33-treated vs DMSO-treated, DNA repair pathways
structure (smiles),measurement,setting,value
"COC(=O)c1cc(NC2=NC(=O)C(=Cc3ccc(N(C)C)cc3)S2)ccc1OC(C)=O [HH33, Methyl 2-acetoxy-5-[(5-(4-dimethylaminobenzylidene)-4 (H)-oxo-1,3-thiazol-2-yl)-amino]benzoate]",Fold change (H_Mean/D_Mean) CLSPN,"A549 cells; A549, H33-treated vs DMSO-treated, DNA repair / cell cycle",0.01798
same,Fold change (H_Mean/D_Mean) BARD1,"A549 cells; A549, H33-treated vs DMSO-treated, DNA repair / cell cycle / TP53 regulation",0.0451
same,Fold change (H_Mean/D_Mean) ACTR8,A549 cells; [2],0.01139
same,Fold change (H_Mean/D_Mean) CHEK2,A549 cells; [2],0.05943
same,Fold change (H_Mean/D_Mean) EYA3,A549 cells; [2],0.02596
same,"six shared genes (ATAD2, CDCA3, FAMIIIB, CDKN3, HISTIH2AH, MIS18BP1)","A549 cells; A549, confirmed by quantitative RT-PCR",maximally downregulated
same,apoptotic signaling pathway,"A549 cells; A549, hypergeometric test",upregulation
same,cell cycle progression pathway,"A549 cells; A549, hypergeometric test",down-regulation
same,Fold change BECN1,A549 cells; [3],186.7500
same,Fold change CRIP1,A549 cells; [3],199.5714
same,Fold change TGFB1,A549 cells; [3],100.8000
same,Fold change TNFRSF10C,A549 cells; [3],802.5000
same,Fold change YWHAH,A549 cells; [3],168.8804
same,Fold change CDC14A,A549 cells; [4],0.01425
same,Fold change CEP78,A549 cells; [4],0.01614
same,Fold change ODF2,A549 cells; [4],0.005902
same,Fold change CCNE1,A549 cells; [5],0.02093
same,Fold change CDK9,A549 cells; [5],0.02262
same,Fold change COX16,A549 cells; [5],0.04666
same,Fold change CSNK2A2,A549 cells; [5],0.05877
same,G2/M cell cycle arrest,MCF7,57.7%
same,"sensitivity and cell cycle distribution, wild-type versus CDK4 knockout cells",[1],no difference
same,G2/M cell cycle arrest,A549,45.1%
same,G2/M phase accumulation,HCT116,77.4%
same,Fold change (H_Mean/D_Mean) CDC45,MCF7 cells; [6],0.1426
same,Fold change (H_Mean/D_Mean) CHAF1B,MCF7 cells; [6],0.5251
same,Fold change (H_Mean/D_Mean) DDX11,MCF7 cells; [6],0.4961
same,Fold change (H_Mean/D_Mean) ESCO2,MCF7 cells; [6],0.2719
same,Fold change (H_Mean/D_Mean) GTF2H2C,MCF7 cells; [6],0.2907
same,Fold change (H_Mean/D_Mean) MCM6,MCF7 cells; [6],0.4195
same,Fold change (H_Mean/D_Mean) MMS22L,MCF7 cells; [6],0.2144
same,Fold change (H_Mean/D_Mean) PIAS4,MCF7 cells; [6],0.6961
same,Fold change (H_Mean/D_Mean) POLA1,MCF7 cells; [6],0.196
same,Fold change (H_Mean/D_Mean) RAD17,MCF7 cells; [6],0.3003
same,Fold change (H_Mean/D_Mean) RAD51,MCF7 cells; [6],0.2505
same,Fold change (H_Mean/D_Mean) RAD51AP1,MCF7 cells; [6],0.2877
same,Fold change (H_Mean/D_Mean) RECQL,MCF7 cells; [6],0.212
same,Fold change (H_Mean/D_Mean) RIF1,MCF7 cells; [6],0.3166
same,Fold change (H_Mean/D_Mean) RNF111,MCF7 cells; [6],0.5331
same,Fold change (H_Mean/D_Mean) RNF168,MCF7 cells; [6],0.2605
same,Fold change (H_Mean/D_Mean) TRIP13,MCF7 cells; [6],0.4436
same,Fold change (H_Mean/D_Mean) UBE2N,MCF7 cells; [6],0.3688
same,Fold change (H_Mean/D_Mean) UBE2W,MCF7 cells; [6],0.224
same,Fold change (H_Mean/D_Mean) ZSWIM7,MCF7 cells; [6],0.3144
same,pathways related to DNA repair and cell cycle progression,MCF7 cells; hypergeometric test,down-regulation
